# Measured values as given in publication PMC5608352, “Formyl peptide derived lipopeptides disclose differences between the receptors in mouse and men and call the pepducin concept in question” (PLoS ONE, 2017).
# “Also recorded” adds a separate entry of the source. Residues, ends and D or L forms follow the SMILES beside them. No end group written: not given here. *: point of attachment. Palmitoyl = CCCCCCCCCCCCCCCC(=O)*
# Tests used:
# FPR2 [1] = target: T1, FPR2 (Homo sapiens, UniProt P25090); assay: Inhibition of WKYMVM-induced superoxide release, human neutrophils; type: cell-based; details: pepducin 1 μM pre-incubated (mF2Pal16, F1Pal16: 5 min); WKYMVM 50 nM
# T1 construct: Human peripheral blood neutrophils were isolated from buffy coats from healthy blood donors; endogenous in cells; host or cells: human peripheral blood neutrophils from buffy coats of healthy donors
# T1 sequence (P25090 1-351): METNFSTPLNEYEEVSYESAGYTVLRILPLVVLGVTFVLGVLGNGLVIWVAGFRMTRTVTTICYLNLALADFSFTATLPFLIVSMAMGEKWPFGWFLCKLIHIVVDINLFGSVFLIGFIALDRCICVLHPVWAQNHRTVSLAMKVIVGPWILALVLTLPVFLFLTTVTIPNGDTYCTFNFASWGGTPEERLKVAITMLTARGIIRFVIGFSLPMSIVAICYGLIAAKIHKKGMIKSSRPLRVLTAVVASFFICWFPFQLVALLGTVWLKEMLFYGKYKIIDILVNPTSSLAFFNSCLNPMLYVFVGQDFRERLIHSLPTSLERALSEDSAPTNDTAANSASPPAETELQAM
# Excerpt: (§1) Human peripheral blood neutrophils were isolated from buffy coats from healthy blood donors using dextran sedimentation and Ficoll-Paque gradient centrifugation as described. The remaining erythrocytes were disrupted by hypotonic lysis and the neutrophils were washed twice, suspended in KRG and, stored on melting ice until use. This isolation process permits cells to be purified with minimal granule mobilization. The buffy coats were obtained from the blood bank at Sahlgrenska University Hospital. Ethics approval was not needed since the buffy coats were provided anonymously and could not be traced back to a specific individual. This is in line with Swedish legislation section code 4§ 3p SFS 2003:460 (Lag om etikprövning av forskning som avser människor).
# (§2) NADPH-oxidase activity was determined using an isoluminol and HRP-enhanced chemiluminescence (CL) system that allow for the determination of superoxide production. The CL activity was measured in a six-channel Biolumat LB 9505 apparatus (Berthold Co., Wildbad, Germany), using disposable 4-mL polypropylene tubes with 1 mL reaction mixture. The tubes contained 4 U HRP and 10 μg/mL isoluminol together with the cells that were equilibrated in the Biolumat for 5 min at 37°C, after which the stimulus solution (100 μL) was added. The light emission was recorded continuously over time and presented as superoxide production (in arbitrary light units, cpm x10^-6) as a function of time (min). The activity before stimulus addition was recorded as basal line and this activity was not changed in vehicle control samples. […]
# Data analysis was performed using Graph Pad Prism 7.0. The EC50/IC50 values were determined from experiments in which the activities were normalized to the response induced by maximal response or induced by agonist in the absence of inhibitor. […]
# Human neutrophils (10^5 cells) were pre-incubated without (solid line) or with mF2Pal16 (1 μM) for 5 min before stimulation with A) the FPR2 specific agonist WKYMVM (50 nM, indicated by the arrow). […] The release of superoxide anions was measured continuously. […]
# FPR1 = assay: Inhibition of fMLF-induced superoxide release, human neutrophils; type: cell-based; details: pepducin 1 μM; fMLF 50 nM
# Excerpt: as §1
# as §2, with “The tubes contained 4 U HRP and 10 μg/mL isoluminol together with the cells that were equilibrated in the Biolumat for 5 min at 37°C, after which the stimulus solution (100 μL) was added.” left out
# mouse neutrophils [2] = target: T2, mouse neutrophils (Mus musculus, UniProt O88536); assay: Direct activation: superoxide release (isoluminol/HRP chemiluminescence), WT mouse bone marrow neutrophils; type: cell-based
# T2 sequence (O88536 1-351): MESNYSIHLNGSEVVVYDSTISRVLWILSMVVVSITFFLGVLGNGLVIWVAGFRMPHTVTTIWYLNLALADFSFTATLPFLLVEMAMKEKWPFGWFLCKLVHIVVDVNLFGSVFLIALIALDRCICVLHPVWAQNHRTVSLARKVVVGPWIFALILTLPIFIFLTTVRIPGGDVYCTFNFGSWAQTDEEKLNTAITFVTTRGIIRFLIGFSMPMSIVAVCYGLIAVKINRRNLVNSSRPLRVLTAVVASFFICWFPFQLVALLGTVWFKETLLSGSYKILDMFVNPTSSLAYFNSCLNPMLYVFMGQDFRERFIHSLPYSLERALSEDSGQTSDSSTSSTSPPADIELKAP
# Excerpt: Mice (8–12 weeks of age) were killed by cervical dislocation, the femurs and tibias were removed and freed of soft tissue attachments, and the extreme distal tip of each extremity was cut off. KRG without Ca^2+ and Mg^2+ (KRG-) was forced through the bone by using a 1-mL syringe with a 27-gauge needle. After dispersing cell clumps and removing the debris, the bone marrow granulocytes were isolated according to an earlier described procedure with some modifications. Briefly, a cell suspension in 2 mL of KRG- was laid on top of a three-layer Percoll gradient (1.095, 1.085, and 1.070 g/mL). The density of each Percoll solution was verified using density marker beads. After centrifugation at 500 × g for 30 min at 4°C in a swinging bucket rotor, the lowest band (1.085/1.095 g/mL interface) was collected as the neutrophil fraction. After washing with KRG-, remaining red blood cells were eliminated by hypotonic lysis. After a final wash with KRG-, the cells were resuspended in KRG. The cell number and population of bone marrow cells were determined by flow cytometry based on forward scatter (size) and side scatter (density) localization.
# NADPH-oxidase activity was determined using an isoluminol and HRP-enhanced chemiluminescence (CL) system that allow for the determination of superoxide production. The CL activity was measured in a six-channel Biolumat LB 9505 apparatus (Berthold Co., Wildbad, Germany), using disposable 4-mL polypropylene tubes with 1 mL reaction mixture. The tubes contained 4 U HRP and 10 μg/mL isoluminol together with the cells that were equilibrated in the Biolumat for 5 min at 37°C, after which the stimulus solution (100 μL) was added. The light emission was recorded continuously over time and presented as superoxide production (in arbitrary light units, cpm x10^-6) as a function of time (min). The activity before stimulus addition was recorded as basal line and this activity was not changed in vehicle control samples. Since the FPR/Fpr-mediated superoxide production with respect to the onset and decline are very similar, the peak activities were used to compare the responses induced.
# Naïve bone marrow cells produce very low levels of superoxide upon stimulation and to increase this production the cells were routinely primed for one hour at RT followed by TNF-α (10 ng/mL, final concentration) priming for a period of 20 min at 37°C [10]. The cells were then kept on ice until further analysis, as described above. The reason for choosing the chemiluminescence based NADPH-oxidase assay system was that very few cells are required, allowing us to monitor and quantify receptor-mediated events with the limited number of mouse bone marrow neutrophils available.
# Data analysis was performed using Graph Pad Prism 7.0. The EC50/IC50 values were determined from experiments in which the activities were normalized to the response induced by maximal response or induced by agonist in the absence of inhibitor. The statistical analysis was performed on raw data using Student’s t-test when two groups were compared or one-way ANOVA with Dunnett’s multiple comparisons test in comparison to the control response when three groups were compared. * p ≤ 0.05 was considered significant.
# mouse neutrophils [3] = target: T2, mouse neutrophils; assay: Receptor (cross-)desensitization, superoxide release, WT mouse neutrophils; type: cell-based; details: then pepducin 1 μM
# Procedure: NADPH-oxidase activity was determined using an isoluminol and HRP-enhanced chemiluminescence (CL) system that allow for the determination of superoxide production [29, 30]. The CL activity was measured in a six-channel Biolumat LB 9505 apparatus (Berthold Co., Wildbad, Germany), using disposable 4-mL polypropylene tubes with 1 mL reaction mixture. The tubes contained 4 U HRP and 10 μg/mL isoluminol together with the cells that were equilibrated in the Biolumat for 5 min at 37°C, after which the stimulus solution (100 μL) was added. The light emission was recorded continuously over time and presented as superoxide production (in arbitrary light units, cpm x10^-6) as a function of time (min). […] Since the FPR/Fpr-mediated superoxide production with respect to the onset and decline are very similar, the peak activities were used to compare the responses induced.
# The release of superoxide anions was continuously measured. […]
# human neutrophils = assay: Direct activation: superoxide release (isoluminol/HRP chemiluminescence), human neutrophils; type: cell-based; details: 10^5 cells, 37°C, isoluminol/HRP CL, pepducin 1 μM
# Excerpt: as §1
# as §2, with “The tubes contained 4 U HRP and 10 μg/mL isoluminol together with the cells that were equilibrated in the Biolumat for 5 min at 37°C, after which the stimulus solution (100 μL) was added.” left out
# Fpr2^-/- neutrophils = assay: Direct activation: superoxide release, Fpr2^-/- mouse neutrophils compared with WT; type: cell-based; details: pepducin 1 μM; % of peak fMIFL (10 nM) response; p ≤ 0.05 significant
# Excerpt: (§3) C57BL/6 wild-type mice were purchased from Charles River Laboratories and Fpr2^−/− mice generated as described previously, were generously provided by Dr Ji Ming Wang, Frederick National Laboratory for Cancer Research, USA. Mice were kept under standard temperature and light conditions and fed laboratory chow and water ad libitum, at the Department of Rheumatology and Inflammation Research, University of Gothenburg. Sex matched WT and Fpr2^-/- animals (age 8–10 weeks) were used to isolated bone marrow derived neutrophils. The studies performed were approved by the Ethical Committee for Animal Experimentation, Göteborg, Sweden.
# (§4) Mice (8–12 weeks of age) were killed by cervical dislocation, the femurs and tibias were removed and freed of soft tissue attachments, and the extreme distal tip of each extremity was cut off. […] The cell number and population of bone marrow cells were determined by flow cytometry based on forward scatter (size) and side scatter (density) localization.
# (§5) NADPH-oxidase activity was determined using an isoluminol and HRP-enhanced chemiluminescence (CL) system that allow for the determination of superoxide production. The CL activity was measured in a six-channel Biolumat LB 9505 apparatus (Berthold Co., Wildbad, Germany), using disposable 4-mL polypropylene tubes with 1 mL reaction mixture. […]
# FPR2 [4] = assay: Receptor preference in human neutrophils (FPR2 versus FPR1); type: cell-based; details: conclusion from superoxide release experiments
# Excerpt: as §1
# as §2, with “The tubes contained 4 U HRP and 10 μg/mL isoluminol together with the cells that were equilibrated in the Biolumat for 5 min at 37°C, after which the stimulus solution (100 μL) was added.” left out
# Fpr2 [5] = target: T3, Fpr2 (Mus musculus, UniProt O88536); assay: Receptor preference in mouse neutrophils (Fpr2 versus Fpr1); type: cell-based; details: conclusion from superoxide release, Fpr2^-/- cells, desensitization and inhibitors
# T3 construct: WT mouse neutrophils (5 x 10^4 cells) were pre-incubated without (solid line) or with mF2Pal16; endogenous in cells; host or cells: bone marrow neutrophils of C57BL/6 wild-type mice, TNF-alpha primed
# T3 sequence (O88536 1-351): T2 sequence (O88536 1-351)
# Excerpt: as §3, §4, §5
# Fpr2 [6] = target: T3, Fpr2; design: method as in PMID 27614010; details: ref [12]; cited from earlier work
# Excerpt: When looking at the FPRs in different species it is clear that the receptor family has a complex evolutionary history, as illustrated by the fact that the number of genes in the family vary markedly in mouse and man. […] As different mouse models constitute important tools for translational studies aiming to understa ... || Genetically modified mouse strains and mouse disease models provide excellent tools to study the function of neutrophil FPRs in vivo. Such studies have indicated Fprs (in particular Fpr2) as important regulators of the physiological processes leading to resolution of inflammation. However, a direct translation of mouse data to human studies is hampered due to the distant phylogenetic relationship between mouse and human receptors. In addition to the different number of Fpr genes in mice and humans and an incomplete understanding of the evolutionary relationship between human FPRs ...
# FPR2 [7] = assay: Inhibition of F2Pal16 (FPR2 activating pepducin)-induced superoxide release, human neutrophils; type: cell-based; details: PBP10 1 μM or CysH 1 μM, 5 min pre-incubation; F2Pal16 1 μM; five experiments
# Excerpt: as §1
# as §2, with “The tubes contained 4 U HRP and 10 μg/mL isoluminol together with the cells that were equilibrated in the Biolumat for 5 min at 37°C, after which the stimulus solution (100 μL) was added.” left out
# [8] = target: formyl peptide receptor Fpr2, mouse (mouse (endogenous in bone marrow neutrophils)) (UniProt O88536)
# [9] = target: formyl peptide receptor Fpr2, mouse (mouse (endogenous in bone marrow neutrophils)) (UniProt O88536); remark: listed apart in the source
molecule,measurement,setting,value
CCCCCCCCCCCCCCCC(=O)N[C@@H](CCCCN)C(=O)N[C@H](C(=O)N[C@@H](Cc1c[nH]cn1)C(=O)N[C@@H](CCCNC(=N)N)C(=O)N[C@@H](CCC(N)=O)C(=O)NCC(=O)N[C@@H](CC(C)C)C(=O)N[C@H](C(=O)N[C@@H](CCCCN)C(=O)N[C@@H](CO)C(=O)N[C@@H](CO)C(=O)N[C@@H](CCCNC(=N)N)C(=O)N1CCC[C@H]1C(=O)N[C@@H](CC(C)C)C(=O)N[C@@H](CCCNC(=N)N)C(=O)N[C@H](C(=O)O)C(C)C)[C@@H](C)CC)[C@@H](C)CC [mF1Pal16] (Palmitoyl-KIHRQGLIKSSRPLRV-OH; N-terminus and C-terminus assumed),"effect on WKYMVM response, human neutrophils",FPR2 [1],inhibited the response
same,"effect on fMLF response, human neutrophils",FPR1,did not affect the response
same,superoxide release / activation of WT mouse neutrophils,"mouse neutrophils [2]; WT mouse (C57BL/6) bone marrow neutrophils, TNF-α primed, 5 x 10^4 cells, 37°C, isoluminol/HRP CL, peak activity, pepducin 1 μM in figures",triggered activation of the NADPH-oxidase in mouse neutrophils
same,"relative potency, activation of WT mouse neutrophils","mouse neutrophils [2]; compared in words with derivatives or other pepducins, 1 μM in Figs 3, 6C, % of fMIFL (10 nM) peak, three independent experiments",much lower EC50 value as compared to that of F1Pal16
same,response to second stimulation after PSMα2,mouse neutrophils [3]; first PSMα2 50 nM,non-responsive to a second stimulation
same,response to second stimulation after fMIFL,mouse neutrophils [3]; first fMIFL 10 nM,not fMIFL-stimulated cells were non-responsive
same,superoxide release / activation of human neutrophils,human neutrophils,Human neutrophils were not activated; also recorded: does not activate human neutrophils to produce superoxide
same,superoxide release in Fpr2^-/- neutrophils compared with WT,Fpr2^-/- neutrophils,not abolished but significantly reduced
same,receptor preference / modulation of FPR2 (versus FPR1) in human neutrophils,FPR2 [4],very similar activities but with somewhat different potency; also recorded: preference for FPR2 over FPR1; also recorded: inhibits the FPR2 activity in human neutrophils; also recorded: negatively target human FPR2
same,receptor preference / modulation of Fpr2 (versus Fpr1) in mouse neutrophils,Fpr2 [5],activates primarily Fpr2 in mouse neutrophils; also recorded: positively target the mouse Fpr2; also recorded: can act as an agonist for Fpr2
Cyclosporin H,activity at mouse Fprs (earlier work),Fpr2 [6],lack effects on their mouse counterparts
same,"effect of inhibitor on F2Pal16 response, human neutrophils",FPR2 [7],not by the FPR1 inhibitor cyclosporine H
Palmitoyl-KIHKKGMIKSSRPLRV [F2Pal16 pepducin (Pal-…)],"EC50 of superoxide release by wild-type mouse neutrophils, dose-response of F2Pal16 (maximum at 1 uM)",[8],300 nM
Palmitoyl-KIHKQGLIKSSRPLRV [F1Pal16 pepducin (Pal-…)],"EC50 of superoxide release by wild-type mouse neutrophils, dose-response of F1Pal16",[9],300 nM
